In patent US6613534B2, “MAP-2 as a determinant of metastatic potential” (Wake Forest University Health Sciences, priority 2001, dated 2003):
“Also recorded” adds a separate entry of the source. Like-named read-outs stand apart in the source and are kept apart here.

Key:
[1] = tested on: MAP-2 mRNA in SK-MEL-19 melanoma cells; assay: Northern blot of total RNA for MAP-2 expression, cAMP and protein kinase C pathway agents (FIG. 8); format: cell-based, human
[2] = tested on: TYRP1 mRNA in SK-MEL-19 melanoma cells; assay: Northern blot of total RNA for TYRP1 expression (FIG. 8); format: cell-based, human
[3] = tested on: SK-MEL-19 human metastatic melanoma cell line; assay: Cell morphology of HMBA-treated melanoma cells (FIG. 3); format: cell-based; details: SK-MEL-19, 5 mM HMBA for 5 days
[4] = tested on: MAP-2 cDNA (approximately 450 bp fragment) in SK-MEL-19 melanoma cells; assay: Differential display RT-PCR of control and HMBA-treated cells; format: cell-based, human; details: 5 mM HMBA-treated vs control SK-MEL-19 cells
Method: Differential display was used to characterize changes in gene expression associated with growth inhibition in melanoma cells. For differential display (DD), RT-PCR was performed using a GeneAmp System 2400 (Perkin-Elmer Corp., Foster City, Calif.). DD was performed using the DeltaTM Differential Display Kit (Clontech Laboratories Inc.). […] Diluted cDNA (1:12.5 and 1:50) was used to amplify DD-PCR product in the presence of [α-^33P]dATP (Dupont NEN, Boston, Mass.) using a random combination of arbitrary primers and oligo (dT) primers. PCR products were resolved by electrophoresis in a 5% polyacrylamide, 8 M urea sequencing gel. The gel was dried and exposed to Biomax MS film (Kodak, Rochester, N.Y.). Bands differentially expressed between untreated and treated samples were cut, eluted, re-amplified, sequenced by the ABI 377 DNA Sequencer (Perkin-Elmer Corp., Foster City, Calif.). Differential display analysis was performed using RNA obtained from control and HMBA-treated SK-MEL-19 melanoma cells. Primer […] NO: 4) and oligo dT primer […] U32996; nucleotides 1931-2384). […] Cell Biol., 106:779-783 (1988)).

[5] = tested on: cultured human metastatic melanoma cells; details: cited from earlier work
[6] = tested on: TYRP1 in cultured human metastatic melanoma cells; details: cited from earlier work
[7] = tested on: mouse erythroleukemia cells (MEL) and a variety of human tumor cells; details: cited from earlier work
[8] = SK-MEL-19, 5 mM HMBA, 2.5 nM CT, 10 ng/ml TPA or combinations, 6, 24 and 48 h

Row | Molecule | MAP-2 expression (MAP-2c mRNA) [1, 8] | TYRP1 mRNA expression [2, 8] | cell morphology [3] | expression of ~450 bp MAP-2 cDNA by differential display [4] | cell growth [5] | TYRP1 expression [6] | cell cycle distribution [7] | terminal differentiation ([7]; mouse erythroleukemia cells (MEL) and a variety of human tumor cells) | MAP-2 expression (MAP-2c mRNA) [1] | TYRP1 mRNA expression [2]
1 | CC(=O)NCCCCCCNC(C)=O [HMBA, hexamethylene bisacetamide] | up-regulation of MAP-2 expression was detected | extinction of TYRP1 expression | induction of dendritic morphology; also recorded: formation of dendrite-like structures | over expressed in treated cells; also recorded: generates an approximately 450 bp cDNA | inhibits growth | selective down-regulation | accumulation of cells in G0/G1 phase with a significant decrease in population of cells in G2/M phase | induce terminal differentiation |  | 
2 | CCCCCCCCCCCCCC(=O)O[C@@H]1[C@@H](C)[C@@]2(O)[C@@H](C=C(CO)C[C@]3(O)C(=O)C(C)=C[C@@H]23)[C@@H]2C(C)(C)[C@]12OC(C)=O [TPA, 12-O-tetradecanoyl phorbol-13-acetate] |  |  |  |  |  |  |  |  | did not induce MAP-2 expression; also recorded: does not change MAP-2 expression | did not cause down-regulation of TYRP1 mRNA
3 | cholera toxin [CT] |  |  |  |  |  |  |  |  | did not induce MAP-2 expression; also recorded: does not change MAP-2 expression | did not cause down-regulation of TYRP1 mRNA
